One test concerns STAT3. The experiment in a line: STAT3 Y705 phosphorylation in HCEC cells (Western blotting). Format: cell-based, human. As to the method:
(§1) HCEC cells were kindly provided by Professor Steinberg Pablo (Institute for Food Toxicology and Analytical Chemistry, University of Veterinary Medicine Hannover, Germany) and maintained as previously described.^31 After 24 hours of seeding, cells were either stimulated with 0.66 ng/ml TNF (ImmunoTools) for various time points. For inhibitor experiments cells were pre-incubated for one to two hours with the corresponding inhibitors.
(§2) Protein concentration was measured in duplicates using Bio-rad Dc Protein Assay (BioRad Laboratories, Hercules, CA). Equal amounts of protein were separated by 10% or 12% SDS-PAGE using Laemmli buffer system. Proteins were transferred electrophoretically to nitrocellulose membrane (Millipore Corporation, Billerica, MA, USA) and detected as recently described^33 using following antibodies, anti-DAPK (BD Transduction Laboratories, Lexington NY), anti-pDAPK^S308 (Sigma), anti-STAT3, anti-pSTAT3^γ705, anti-caspase3 (Cell Signaling Technology Inc.), anti-ß-actin (Sigma), or anti-GAPDH (Abnova GmbH, Germany).
For orientation: In western blotting, separated proteins are transferred to a membrane and probed.

In test [1] the test system is DAPK. The experiment in a line: DAPK mRNA expression in HCEC cells (real time RT-PCR). Format: cell-based, human. Particulars: for DAPK mRNA enhanced: 7 µM Stattic + TNF, relative to TNF treatment. As for the experimental part: as §1
Expression of IL-6, IL-8, and DAPK mRNA were analyzed by real time RT-PCR. RNA isolation (mRNeasy RNA isolation kit) and cDNA synthesis (Quantitect reverse transcriptase kit) were performed according to the manufacturer's instructions (Qiagen, Hilden, Germany). 1 µl of cDNA was amplified in a thermal cycler (Biorad CFX-96) with corresponding primers in a total volume of 25 µl using Quantifast SYBR green kit (Qiagen) under the following conditions: 95°C for 5 minutes followed by 26-40 cycles of 95°C for 10 s and 60°C for 30 s. The following primers were used, forward and reverse respectively: DAPK, 5'-[…]-3' and 5'-GATCCCGAGTGGCCAAA-3'; IL-6, 5'-[…]-3' and 5'-[…]-3'; IL-8, 5'-[…]-3' and 5'-[…]-3'; ß2microglobulin (house-keeping gene), 5'-[…]-3' and 5'-[…]-3'; murine DAPK, 5'-[…]-3' and 5'-[…]-3'; murine GAPDH (house-keeping gene), 5'-[…] -3' and 5'-[…] -3'. The results were expressed as fold induction compared to unstimulated cells after normalising to house-keeping gene. All primers were purchased from metabion (metabion international AG, Martinsried, Germany).
For orientation: In qPCR the cycle at which signal appears reflects the starting amount.

For test [2], the system named is DAPK. The experiment in a line: DAPK protein expression/activation in HCEC cells (Western blotting). The test is classed as cell-based, human. As to the method: as §1, §2
Silencing of DAPK expression in HCEC cells was performed by the siRNA technique according to the manufacturer's instructions (Dharmacon, Chicago, IL, USA). […] At the end of the incubation period supernatants and cells were harvested and stored at -80°C until analyzed further. The knockdown efficiency was determined by Western blotting.

Test [3] concerns IL-6. The experiment in a line: IL-6 secretion in HCEC cell culture supernatants (ELISA). Particulars: HCEC cells. Format: cell-based, human. As to the method:
as §1
IL-6 and IL-8 secretion was analyzed by ELISA according to the manufacturer's instructions (BD Biosciences; Heidelberg, Germany). […] After blocking (300 µl 3% BSA in PBS, 2 hours, RT) and washing (0.1% Tween in PBS, (PBS-T), 100 µl of undiluted or diluted supernatant was added and incubated (2 hours, RT or overnight 4°C). Thereafter, wells were washed and incubated (1.5 hours, RT) with detection antibody (1:250 diluted in 1% BSA in PBS-T) + enzyme reagent (Streptavidin-horseradish peroxidase conjugate; 1:250 diluted in detection antibody). After washing, TMB (1:1) substrate was added to each well and incubated in a dark for 20-30 minutes. Reaction was stopped with stop solution (100 µl 1 M H2SO4) and absorption was measured using spectrophotometer (Victor X3, Perkin-elmer) at a wavelength of 450 nm with a wavelength correction at 570 nm.
For orientation: In an ELISA, binding on a coated surface is turned into a signal by an enzyme label.

The test system of test [4] is IL-6. Description: IL-6 mRNA expression in HCEC cells (real time RT-PCR). Format: cell-based, human. Particulars: AG490. As for the experimental part: as §1
Expression of IL-6, IL-8, and DAPK mRNA were analyzed by real time RT-PCR. RNA isolation (mRNeasy RNA isolation kit) and cDNA synthesis (Quantitect reverse transcriptase kit) were performed according to the manufacturer's instructions (Qiagen, Hilden, Germany). 1 µl of cDNA was amplified in a thermal cycler (Biorad CFX-96) with corresponding primers in a total volume of 25 µl using Quantifast SYBR green kit (Qiagen) under the following conditions: 95°C for 5 minutes followed by 26-40 cycles of 95°C for 10 s and 60°C for 30 s. […] The results were expressed as fold induction compared to unstimulated cells after normalising to house-keeping gene. […]

For a further test, the system named is AOM-DSS tumors. The experiment in a line: AOM+DSS mouse model of colitis-associated tumors, treatment with DAPK-inhibitor. The test is classed as in vivo, mice. As for the experimental part:
as §2
Experimental colitis-associated tumorigenesis was performed as previously described.^43 In brief, 10mg/kg Azoxymethane (AOM; Sigma) was injected intraperitoneally into 6-8 week old C57BL/6J mice, followed by 3 cycles of DSS in drinking water. Each DSS-cycle was composed of DSS (2.5 % (w/v); MP Biomedicals) in drinking water for 7 days, followed by a recovery phase with regular drinking water for 14 days. All tumors were harvested at day 65-70.

[5] abbreviates: AOM-DSS tumors, treated mice vs untreated control mice.

For `O=[N+]([O-])c1ccc2c(c1)S(=O)(=O)C=C2` [Stattic], the “TNF-induced STAT3Y705 phosphorylation down-regulated” value in the test with STAT3 (7 µM Stattic pre-treatment) is recorded as “up to 45%”. In addition, the “DAPK mRNA enhanced” value in the test with DAPK [1] (after 48 hours) is listed as 1-5 fold; in the test on DAPK [1] (after 72 hours), 2.8 fold. Also, in the test with DAPK [2] (7 µM Stattic + TNF), the DAPK protein entry is given as “enhanced”.
For `N#C/C(=C\c1ccc(O)c(O)c1)C(=O)NCc1ccccc1` [AG490, Tyrphostin AG 490], the “TNF-induced IL-6 secretion down-regulated” value in the test on IL-6 [3] (AG490) is on record as 50%. In the test with STAT3 (20 µM AG490 prior to TNF treatment), this molecule came in with a pSTAT3Y705 levels decreased of 35%. The “DAPK mRNA expression” value in the test on DAPK [1] (20 µM AG490 pre-treatment + TNF, after 72 hours) was 3.3 fold. For the same molecule, the “TNF-induced IL-6 mRNA expression down-regulated” value in the test on IL-6 [4] is recorded as 50%. The “TNF-induced DAPK protein expression” value with DAPK [2] (20 µM AG490 + TNF) is “elevated”.
`O=C1OC(c2ccccc2)=N/C1=C\c1cccnc1` [DAPK inhibitor, (4Z)-2-phenyl-4-(pyridine-3-ylmethylidene)-4,5-dihydro-1,3-oxazol-5-one]: the “TNF-induced IL-6 secretion” value with IL-6 [3] (0.66 ng/ml TNF, 10 µM DAPK inhibitor, after 6 and 24 hours) is on record as “significantly increased”. For the same molecule, the STAT3Y705 phosphorylation entry in the test on STAT3 (0.66 ng/ml TNF, 10 µM DAPK inhibitor, after 24, 48, and 72 hours) is listed as “enhanced”. Besides, the “tumors in the gut (endoscopy)” value with AOM-DSS tumors (AOM-DSS mice, with vs without DAPK-inhibitor) was “less and smaller tumors”. Also, the “tumor growth, atypia and architecture (immunohistochemical evaluation)” value in the test on AOM-DSS tumors (AOM-DSS mice, untreated controls: non-invasive growth, low grade atypia, simple and tubular architecture) is “invasively growing, showed high grade atypia, and a complex, cribiform architecture”. In the test on AOM-DSS tumors (setting [5]), the “NFκB inhibitor plκß in tumors (Western Blotting)” value is on record as “up-regulated” and the “tumor suppressor p53 in tumors (Western Blotting)” value is “down-regulated”.

These data come from patent EP2767273A1, “Death-associated protein kinases, inhibitors and activators thereof for use in pharmaceutical compositions and in predictive medicine” (UNIVERSITÄTSKLINIKUM ERLANGEN, priority 2013, dated 2014).
